What all share (assay): NCI tumour cell line growth inhibition, 48 h
Assay [1] has as its system T-47D breast.
For assay [2], the system named is MDA-MB-231 breast.
Assay [3] relates to PC-3 prostate.
Assay [4] has as its system MCF7 breast.
Assay [5] deals with DU-145 prostate.
In assay [6] the test system is NCI/ADR-RES ovarian.

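Protocol summary: plate cells (96-well), add compound at 5 concentrations, incubate 48 h, interpolate endpoints linearly. Here, GI50 denotes the concentration required for 50% inhibition of growth. Definition used: TGI = concentration required for complete inhibition of growth.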

With `N#C[C@@H]1C(n2ccc(N)nc2=O)O[C@H](CO)[C@H]1O` (some centres undefined), the GI50 in assay [1] is more than 100 µM; in assay [2], more than 100 µM; in assay [3], 97.4 µM; in assay [4], 0.993 µM; in assay [5], 5.02 µM; in assay [6] it was 12.9 µM. In addition, the TGI in assay [1], in assay [2], in assay [3], in assay [4], in assay [5] and in assay [6] was more than 100 µM each time.

Turning to `COc1ccc(Cn2c(Cl)c(/C=C3/C(=O)Nc4ccccc43)c3cc(OC)c(C)cc32)cc1`, the GI50 in assay [1] was 25 µM; in assay [2], 4.22 µM; in assay [3], 6.22 µM; in assay [4] it was 5.87 µM; in assay [5], 18.1 µM; in assay [6], 2 µM. Moreover, the TGI in assay [1] was more than 100 µM; in assay [2], more than 100 µM; in assay [3] it was more than 100 µM; in assay [4] it was more than 100 µM; in assay [5] it was more than 100 µM; in assay [6], 4.77 µM.

Take `Nc1ccc(S(=O)(=O)NCc2nccs2)cc1`: the TGI in assay [1] is 71.8 µM; in assay [2], 68.2 µM; in assay [3] it was more than 100 µM; in assay [4], 61.4 µM; in assay [5], 95.5 µM; in assay [6] it was 62.7 µM.

Consider `COC(=O)C1=C(C(=O)OC)SC(=C(Cl)C(=S)Sc2ccccc2N)S1`, for which the GI50 in assay [1] was 39.6 µM; in assay [2] it was 16.6 µM; in assay [3], 29.6 µM; in assay [4] it was 16.7 µM; in assay [5], 4.14 µM; in assay [6], 25.5 µM. Besides, the TGI in assay [1] is more than 100 µM; in assay [2] it was 42.9 µM; in assay [3], more than 100 µM; in assay [4] it was 34 µM; in assay [5], 43.7 µM; in assay [6] it was 62.1 µM.

For the compound `CC(C)Oc1cc(O)c2c(c1)OCC=C2CCC(=O)O`, the TGI in assay [1] was more than 100 µM; in assay [2], more than 100 µM; in assay [3] it was more than 100 µM; in assay [4], 40.2 µM; in assay [5], more than 100 µM; in assay [6], more than 100 µM.

With `Oc1ccccc1-c1nc2c3ccccc3c3ccccc3c2[nH]1`, the GI50 in assay [1] was 1.89 µM; in assay [2] it was 1.96 µM; in assay [3] it was 3.49 µM; in assay [4], 1.99 µM; in assay [5], 13.6 µM; in assay [6], 8.43 µM. Besides, the TGI in assay [1] was determined as 12.8 µM; in assay [2] it was 4.44 µM; in assay [3] it was 14.8 µM; in assay [4] it was 13.4 µM; in assay [5], 26.5 µM; in assay [6], 25.6 µM.

In the case of `CCN(CC)CCCC(C)Nc1c2ccc(C)cc2nc2ccc(OC)cc12` (centres undefined), the GI50 in assay [1] was 11.8 µM; in assay [2] it was 1.61 µM; in assay [3], 1.94 µM; in assay [4] it was 0.837 µM; in assay [5] it was 1.65 µM; in assay [6] it was 4.03 µM. Also, the TGI in assay [1] worked out at 33.9 µM; in assay [2], 5.41 µM; in assay [3], 10.8 µM; in assay [4], 11.1 µM; in assay [5] it was 8.83 µM; in assay [6], 22.7 µM.

As to `Cc1cc(N/N=C/c2nc(-c3ccc(Cl)cc3)oc2C)c2cc(Cl)ccc2n1`, the GI50 in assay [1] is 1.69 µM; in assay [2], 3.25 µM; in assay [3], 2.1 µM; in assay [4], 1.35 µM; in assay [5], 2.45 µM; in assay [6], 2.19 µM. The TGI was 3.36 µM in assay [1]; 10.3 µM in assay [2]; 4.81 µM in assay [3]; 2.97 µM in assay [4]; 6.9 µM in assay [5]; 5.63 µM in assay [6].

As for `COc1ccc(C2CC(n3nnnc3-c3ccccc3)=NN2)cc1` (centres undefined), the GI50 in assay [1] was 1.16 µM; in assay [2] it was 0.564 µM; in assay [3], 6.28 µM; in assay [4] it was 2.68 µM; in assay [5], 12.9 µM; in assay [6] it was 4.3 µM. The TGI in assay [1] stood at 87.3 µM; in assay [2] it was 12.8 µM; in assay [3], 72.3 µM; in assay [4] it was 38.7 µM; in assay [5], 49.3 µM; in assay [6], 33.7 µM.

`CC1CCN(CC(=O)N2c3ccccc3Sc3cc4ccccc4cc32)CC1`: the TGI in assay [1], in assay [2], in assay [3], in assay [4], in assay [5] and in assay [6] was more than 100 µM throughout.

Consider `FCc1ncc(-c2ccc(C(F)(F)F)cc2)c(NC2CCCCCC2)n1`, for which the GI50 in assay [1], in assay [2], in assay [3], in assay [4], in assay [5] and in assay [6] was more than 10 µM in each case. Besides, the TGI in assay [1], in assay [2], in assay [3], in assay [4], in assay [5] and in assay [6] was more than 10 µM each time.

For the compound `C[C@]12CC[C@@H]3c4ccc(O)cc4C(O)C[C@H]3[C@@H]1CCC2=O` (some centres undefined), the GI50 in assay [1], in assay [2], in assay [3], in assay [4], in assay [5] and in assay [6] was more than 100 µM in each case. Besides, the TGI in assay [1], in assay [2], in assay [3], in assay [4], in assay [5] and in assay [6] was more than 100 µM throughout.

In the case of `CCC(c1cccc(O)c1)C(CC)c1cccc(O)c1` (centres undefined), the GI50 in assay [1] was 3.54 µM; in assay [2], 6.21 µM; in assay [3], 2.28 µM; in assay [4], 1.62 µM; in assay [5] it was 11 µM; in assay [6], 3.53 µM. Besides, the TGI in assay [1] worked out at 17.1 µM; in assay [2], 19.6 µM; in assay [3], 12.5 µM; in assay [4], 8.04 µM; in assay [5], 29.9 µM; in assay [6], 14.1 µM.

`O=C1CC(=O)OC(c2ccc([N+](=O)[O-])cc2)O1`: the GI50 is 1.93 µM in assay [1]; 2.21 µM in assay [2]; 2.36 µM in assay [3]; 1.59 µM in assay [4]; 1.63 µM in assay [5]; 3.19 µM in assay [6]. In addition, the TGI was 4.1 µM in assay [1]; 5.09 µM in assay [2]; 6.43 µM in assay [3]; 3.84 µM in assay [4]; 3.2 µM in assay [5]; 14.1 µM in assay [6].

As to `COC(=O)CCC1=C(C)/C(=C/c2[nH]c(-c3ccc[nH]3)cc2OC)N=C1C`, the GI50 in assay [1] was 0.378 µM; in assay [2], 0.223 µM; in assay [3] it was 0.564 µM; in assay [4], 0.331 µM; in assay [5], 2.17 µM; in assay [6], 0.434 µM. In addition, the TGI in assay [1] was 1.86 µM; in assay [2], 1.35 µM; in assay [3], 12 µM; in assay [4] it was 1.43 µM; in assay [5], 15.1 µM; in assay [6], 12.3 µM.

In the case of `Cn1cc(CNCC2CCN(c3ncc(C(=O)NO)cn3)CC2)c2ccccc21`, the GI50 in assay [1] was less than 0.01 µM; in assay [2], 0.04 µM; in assay [3], 0.012 µM; in assay [4] it was less than 0.01 µM; in assay [5] it was 0.0124 µM; in assay [6], 0.107 µM. Also, the TGI in assay [1] came out at 0.543 µM; in assay [2] it was 5.58 µM; in assay [3], 18 µM; in assay [4] it was 2.53 µM; in assay [5], 4.41 µM; in assay [6] it was 5.59 µM.

Consider `Fc1cccc(Cl)c1/C=N\N=C1c2ccccc2-c2ccccc21`, for which the TGI in assay [1], in assay [2], in assay [3], in assay [4], in assay [5] and in assay [6] was more than 100 µM each time.

With `CC(C)(C)NC(=O)[C@H]1C[C@H]2CCCC[C@H]2CN1C[C@@H](O)[C@H](Cc1ccccc1)NC(=O)[C@H](CC(N)=O)NC(=O)c1ccc2ccccc2n1`, the GI50 in assay [1] is 13.8 µM; in assay [2] it was 13 µM; in assay [3], 7.17 µM; in assay [4], 19.1 µM; in assay [5], 1.78 µM; in assay [6], 19.4 µM. The TGI in assay [1] came out at 40.9 µM; in assay [2], 26.7 µM; in assay [3], 26.8 µM; in assay [4] it was 43.5 µM; in assay [5] it was 6.95 µM; in assay [6], 44.3 µM.

Consider `COC1CC(OC(=O)c2ccccc2)C(OC(=O)c2ccccc2)C(C)O1` (centres undefined), for which the TGI in assay [1], in assay [2], in assay [3], in assay [4], in assay [5] and in assay [6] was more than 100 µM throughout.

Turning to `O=C1c2ccccc2-n2c1nc1ccccc1c2=O`, the TGI is 87.4 µM in assay [1]; more than 100 µM in assay [2]; more than 60.1 µM in assay [3]; 25.2 µM in assay [4]; 24 µM in assay [5]; more than 100 µM in assay [6].

Values taken from PubChem BioAssay (NCI).
